This is an account of results in patent publication US9340577B2, “HLA binding motifs and peptides and their uses” (priority 1992, dated 2016).

No end group written: not given here.

Among the targets are A*0202 (Homo sapiens, UniProt P04439, D140Y/D185E/D98H/E176V/E277Q/G131W/G231S/I119L/I121R/I166T/I218V/L180W/L300P/L318F/N151K/N90K/P208A/P217A/Q67R/Q86G/Q94H/R138H/R169H/T345S); A*0203 (Homo sapiens, UniProt P04439, A173T/D140Y/D185E/D98H/E277Q/G131W/G231S/I119V/I121R/I166T/I218V/L180W/L300P/L318F/N151K/N90K/P208A/P217A/Q86G/Q94H/R138H/R169H/T345S); A*6802 (Homo sapiens, UniProt P04439, A269V/D140Y/D185E/E176V/E277Q/E87N/F33Y/G231S/I121R/I166T/I218V/L180W/L300P/L318F/N151K/P208A/P217A/Q86R/R138H/R169H/S129P/T345S/V36M); A*0206 (Homo sapiens, UniProt P04439, D140Y/D185E/D98H/E176V/E277Q/F33Y/G131W/G231S/I119V/I121R/I166T/I218V/L300P/L318F/N151K/N90K/P208A/P217A/Q86G/Q94H/R138H/R169H/T345S); HLA-A*0201 (HLA-A2.1) (Homo sapiens, UniProt P04439, D140Y/D185E/D98H/E176V/E277Q/G131W/G231S/I119V/I121R/I166T/I218V/L300P/L318F/N151K/N90K/P208A/P217A/Q86G/Q94H/R138H/R169H/T345S).

Common to all, as to assay: biochemical
Common to all, as to assay type: binding

The term IC50 denotes the concentration that gives 50% inhibition. Consider RILQQLLFT [Peptide 1525.13], for which the IC50 against A*0202 was 5690 nM; on A*0203, 5250 nM; at A*6802, more than 20000 nM; against A*0206 it was 491 nM.

VQWAFDNEV [Peptide 86.0209]: the IC50 against A*0202 was 1500 nM; against A*0203, 4520 nM; against A*6802 it was more than 20000 nM; at A*0206 it was 31 nM.

Take YLIGTQQAT [Peptide 9013.0025]: the IC50 is 2.6 nM at A*0202, 18 nM against A*0203, 8240 nM at A*6802 and 5520 nM at A*0206.

Consider YTYYRPGVNV [Peptide 9013.0208], for which the IC50 at A*0202 was 5.6 nM; against A*0203, 2.9 nM; against A*6802, 7 nM; on A*0206 it was 75 nM.

On to NLAEGKEVLL [Peptide 9013.0134], for which the concentration for half-maximal inhibition (IC50) is 9.2 nM against A*0202, 2030 nM at A*0203, more than 20000 nM against A*6802 and 16900 nM at A*0206.

WLNNQSLPV [Peptide 9013.0070]: the concentration for half-maximal inhibition (IC50) was 1.3 nM against A*0202, 4.3 nM on A*0203, 197 nM against A*6802 and 978 nM on A*0206.

Regarding TLGIMIGVLV [Peptide 9013.0251], the IC50 came to 87 nM against A*0202, 197 nM against A*0203, 1780 nM on A*6802 and 2240 nM against A*0206.

SLLTFWNPPTV [Peptide 9013.0256]: the 50% inhibitory concentration (IC50) was 54 nM on A*0202, 54 nM on A*0203, 2270 nM against A*6802 and 536 nM against A*0206.

Consider RVYVCGIQNSV [Peptide 9013.0336], for which the concentration for half-maximal inhibition (IC50) worked out at 0.22 nM against A*0202, 3.6 nM against A*0203, 6320 nM against A*6802 and 305 nM on A*0206.

For LLIESTPFNV [Peptide 9013.0128], the IC50 at A*0202 came out at 4 nM; on A*0203, 8.1 nM; against A*0206, 62 nM; against HLA-A*0201 (HLA-A2.1), 16 nM.

Consider NLTVNNSGSYT [Peptide 9013.0303], for which the half-inhibitory concentration (IC50) on A*0202, against A*0203, at A*0206 and against HLA-A*0201 (HLA-A2.1) was more than 20000 nM throughout.

On to ALYSWLIDGNI [Peptide 9013.0315], for which the half-inhibitory concentration (IC50) at A*0202 was 3.6 nM; against A*0203, 7 nM; at A*0206, 92 nM; against HLA-A*0201 (HLA-A2.1), 25 nM.

For GVLVGVALV [Peptide 9013.0110], the concentration for half-maximal inhibition (IC50) against A*0202 amounted to 6090 nM; against A*0203, 472 nM; on A*0206, 56 nM; against HLA-A*0201 (HLA-A2.1) it was 946 nM.

On to VLGEAMSQA [Peptide 1539.08], for which the half-inhibitory concentration (IC50) against A*0202 was 21 nM; at A*0203, 22 nM; against A*6802 it was more than 20000 nM; against A*0206, 1090 nM.

In the case of ILYAHIQCL [Peptide 1578.08], the concentration for half-maximal inhibition (IC50) against A*0202 was found to be 9.4 nM; against A*0203 it was 10 nM; at A*6802, 16400 nM; against A*0206, 420 nM.

For the compound QLSNGNRTLTV [Peptide 9013.0334], the IC50 at A*0202 was 20 nM; on A*0203, 363 nM; on A*6802, more than 20000 nM; at A*0206, more than 20000 nM.

As for TLYAHIQCL [Peptide 1578.26], the half-inhibitory concentration (IC50) against A*0202 is 4.9 nM; against A*0203, 9.4 nM; at A*0206 it was 420 nM; against HLA-A*0201 (HLA-A2.1), 269 nM.

Regarding RLTVKTITVSA [Peptide 9013.0319], the half-maximal inhibitory concentration (IC50) was 401 nM against A*0202, 91 nM at A*0203, 270 nM on A*6802 and 1360 nM at A*0206.

With TVESTPFNV [Peptide 9013.0013], the half-inhibitory concentration (IC50) against A*0202 was found to be 1910 nM; against A*0203, 6160 nM; against A*0206 it was 2390 nM; at HLA-A*0201 (HLA-A2.1), 17200 nM.

Consider `CC(C)[C@H](NC(=O)[C@@H](NC(=O)[C@H](CC(N)=O)NC(=O)[C@H](CCC(N)=O)NC(=O)[C@H](C)NC(=O)[C@H](CCC(=O)O)NC(=O)[C@@H]1CCCN1C(=O)[C@H](CCC(=O)O)NC(=O)[C@H](CS)NC(=O)[C@@H](NC(=O)[C@@H](N)Cc1ccccc1)[C@@H](C)O)[C@@H](C)O)C(=O)O` [Peptide 9013.0323], for which the half-inhibitory concentration (IC50) at A*0202 is 29 nM; against A*0203, 86 nM; at A*0206, 920 nM; on HLA-A*0201 (HLA-A2.1) it was 336 nM.

As to ILQHTQELFI [Peptide 9013.0212], the half-maximal inhibitory concentration (IC50) is 49 nM on A*0202, 594 nM at A*0203, more than 20000 nM at A*6802 and more than 20000 nM at A*0206.

As for NVAEGKEVLV [Peptide 9013.0133], the half-inhibitory concentration (IC50) against A*0202 is 1140 nM; on A*0203, 19600 nM; at A*0206, more than 20000 nM; against HLA-A*0201 (HLA-A2.1) it was more than 20000 nM.

Consider GMGCTGWFEV [Peptide 1578.19], for which the IC50 came out at 37 nM against A*0202, 62 nM against A*0203, 1320 nM at A*6802 and 1460 nM on A*0206.

As for LTFWNPPTV [Peptide 9013.0006], the IC50 at A*0202 amounted to 17 nM; on A*0203 it was 2.3 nM; on A*0206 it was 5.2 nM; against HLA-A*0201 (HLA-A2.1), 3.4 nM.

On to FLGALKSFL [Peptide 1578.11], for which the 50% inhibitory concentration (IC50) at A*0202 worked out at 0.3 nM; against A*0203, 2.1 nM; at A*0206, 1720 nM; on HLA-A*0201 (HLA-A2.1), 719 nM.

Turning to AIFGVNPTV [Peptide 1578.25], the 50% inhibitory concentration (IC50) on A*0202 came out at 21 nM; on A*0203, 92 nM; against A*0206 it was 96 nM; on HLA-A*0201 (HLA-A2.1), 205 nM.

As to SLQELFIPNI [Peptide 9013.0182], the IC50 came out at 15 nM at A*0202, 35 nM against A*0203, 7460 nM against A*6802 and 66 nM at A*0206.

In the case of GTFQQSTQEV [Peptide 9013.0175], the IC50 at A*0202 is 157 nM; at A*0203, 431 nM; against A*0206, 2050 nM; against HLA-A*0201 (HLA-A2.1) it was more than 20000 nM.

With LTNTGLYNL [Peptide 1481.17], the 50% inhibitory concentration (IC50) against A*0202 is 20 nM; at A*0203, 4990 nM; at A*6802, 1580 nM; at A*0206, 1830 nM.

With WQRLLLTASLV [Peptide 9013.0253], the half-inhibitory concentration (IC50) on A*0202 is 246 nM; at A*0203, 19 nM; against A*6802 it was more than 20000 nM; against A*0206, 496 nM.

Turning to AQYSWLIDGNV [Peptide 9013.0314], the IC50 was found to be 62 nM against A*0202, 48 nM on A*0203, 15600 nM against A*6802 and 70 nM on A*0206.

ITVNNSGSYV [Peptide 9013.0187]: the IC50 on A*0202 was 334 nM; against A*0203, 255 nM; on A*0206, 1010 nM; at HLA-A*0201 (HLA-A2.1), more than 20000 nM.

TLVTTITVYA [Peptide 9013.0193]: the IC50 against A*0202 came to 11 nM; on A*0203, 57 nM; at A*0206, 1740 nM; against HLA-A*0201 (HLA-A2.1) it was 781 nM.

As for ITIGVLVGV [Peptide 9013.0109], the concentration for half-maximal inhibition (IC50) against A*0202 amounted to 43 nM; at A*0203, 16 nM; on A*6802 it was 9 nM; against A*0206, 55 nM.

Regarding QLHTQVLFI [Peptide 9013.0103], the 50% inhibitory concentration (IC50) on A*0202 was 22 nM; at A*0203 it was 39 nM; against A*6802 it was more than 20000 nM; against A*0206, 5520 nM.

For the compound LQGAIISFV [Peptide 1578.28], the IC50 is 6.6 nM against A*0202, 11 nM against A*0203, 20 nM at A*0206 and 42 nM on HLA-A*0201 (HLA-A2.1).

For the compound ILNTTYLWWV [Peptide 9013.0195], the IC50 on A*0202 came out at 121 nM; at A*0203, 22 nM; at A*6802, 15900 nM; against A*0206 it was 775 nM.

On to TLDATYLWWV [Peptide 9013.0158], for which the IC50 against A*0202 was found to be 137 nM; at A*0203, 468 nM; on A*0206, 155 nM; against HLA-A*0201 (HLA-A2.1), 61 nM.

Regarding AQYSWFVNGV [Peptide 9013.0172], the half-maximal inhibitory concentration (IC50) on A*0202 was 1.2 nM; on A*0203, 2.4 nM; at A*6802, 12000 nM; on A*0206, 13 nM.

In the case of RQIIGYVIGV [Peptide 9013.0139], the IC50 against A*0202 amounted to 7.4 nM; against A*0203, 20 nM; against A*6802 it was 27 nM; against A*0206 it was 47 nM.

With GLSLPVSPRL [Peptide 9013.0220], the IC50 was 223 nM against A*0202, 3870 nM at A*0203, more than 20000 nM on A*6802 and more than 20000 nM at A*0206.

Consider FQQSTQELFV [Peptide 9013.0178], for which the concentration for half-maximal inhibition (IC50) was 21 nM against A*0202, 46 nM on A*0203, more than 20000 nM against A*6802 and 60 nM on A*0206.
